Article PMC7864192 (Cancers, 2021)
Like-named read-outs stand apart in the source and are kept apart here.

Assays:
[1] = tested on: GCPA113 T1.III patient-derived AGCT cell line; assay: Cell viability drug screen (Cell Titer Glo 2.0, 72 h), mono- and combination therapy, GCPA113T1.III; details: for IC50: read-out: IC50 in monotherapy
Procedure: (§1) Cell lines were seeded at a density of 500 cells/well in 40 uL in 384-well plates (Corning, NY, USA) with the Multidrop™ cell dispenser (Thermo Fischer Scientific, Waltham, MA, USA) and sealed with Breathe-Easy® membrane (Sigma-Aldrich, St. Louis, MO, USA) to prevent evaporation. […] For each cell line, three biological repeats and two technical repeats each were performed in order to ensure the validity of the drug screens. […] Subsequently, 11 drugs and 12 drug combinations were dispensed and all wells (excluding blanks and non-DMSO control wells) were normalized to 1% DMSO using the HP Tecan D300e Digital Dispenser (Hewlett-Packard, Palo Alto, CA, USA). […] Next, the plates were covered with the Breathe-Easy membrane and incubated. After 72 h, the Multidrop dispensed 15 uL per well of Cell Titer Glo 2.0 (Thermo Fischer Scientific, Waltham, MA, USA) and plates were incubated in the dark for 10 min. After incubation, luminescence excitation was assessed in the Spectramax reader (Molecular Devices, San Jose, CA, USA) (top read, luminescence excitation at 500 nm) and raw data were processed in Microsoft Excel to subtract background luminescence. The Z-factor, a mathematical method used to quantify the quality of a drug screen based on the calculation of the separation band between the values of the positive and negative controls, was utilized to assess the quality of drug screens [54]. Screens with a Z-factor value of >0.5 were used for further analysis.
(§2) Overall cell survival (in %) was plotted against the drug concentration range of each drug (in log10[μM]) using GraphPad Prism 8.3.1. Values that exceeded 100% survival (within +20% biological deviation) were normalized to 100% survival. Similarly, values below 0% cell survival (within −20% biological deviation) were normalized to 0% survival. Values exceeding this deviation were excluded. Dose–response curves were obtained using the model “log(inhibitor) vs. variable slope (normalized response)” to fit the dose–response curves and R^2 values were used to indicate how well the model fit the data (Supplementary Materials Figures S4 and S5). […] The IC50 values were calculated based on the Chou–Talalay method using Compusyn software [55]. For anti-hormonal treatment, mostly provided as maintenance therapy, we used IC10 values in addition to the IC50.
(§3) In addition to the 11 monotherapies, 12 drug combinations were tested (Table 3) simultaneously with the individual drug treatments in the same 384-well plate. […] Synergy was evaluated using the mass action law, a systematic analysis assessing dose–response dynamics in a cost-effective manner [56, 57]. The combination index (CI) was used to indicate antagonistic (CI > 1) additive (CI = 1) and synergistic (CI < 1) effects [55].

[2] = tested on: KGN cells (AGCT cell line); assay: Cell viability drug screen (Cell Titer Glo 2.0, 72 h), mono- and combination therapy, KGN
Procedure: KGN was cultured in conditions identical to AGCT-patient-derived cell lines.
(§4) Cell lines were seeded at a density of 500 cells/well in 40 uL in 384-well plates (Corning, NY, USA) with the Multidrop™ cell dispenser (Thermo Fischer Scientific, Waltham, MA, USA) and sealed with Breathe-Easy® membrane (Sigma-Aldrich, St. Louis, MO, USA) to prevent evaporation. The SVOG-3e line was seeded at 1000 cells/well due to contact-dependent growth requirements. For each cell line, three biological repeats and two technical repeats each were performed in order to ensure the validity of the drug screens. […] Subsequently, 11 drugs and 12 drug combinations were dispensed and all wells (excluding blanks and non-DMSO control wells) were normalized to 1% DMSO using the HP Tecan D300e Digital Dispenser (Hewlett-Packard, Palo Alto, CA, USA). All drugs were applied in linear concentration ranges (Table 2), including 16 data points to enable combination drug testing at constant ratios (Table 3). Next, the plates were covered with the Breathe-Easy membrane and incubated. After 72 h, the Multidrop dispensed 15 uL per well of Cell Titer Glo 2.0 (Thermo Fischer Scientific, Waltham, MA, USA) and plates were incubated in the dark for 10 min. After incubation, luminescence excitation was assessed in the Spectramax reader (Molecular Devices, San Jose, CA, USA) (top read, luminescence excitation at 500 nm) and raw data were processed in Microsoft Excel to subtract background luminescence. […] Screens with a Z-factor value of >0.5 were used for further analysis.
as §2

[3] = tested on: GCPA113 T1.II patient-derived AGCT cell line; assay: Cell viability drug screen (Cell Titer Glo 2.0, 72 h), mono- and combination therapy, GCPA113T1.II; details: for IC50: read-out: IC50 in monotherapy
Procedure: as §1, §2, §3

[4] = tested on: GCPA007 T2.I patient-derived AGCT cell line; assay: Cell viability drug screen (Cell Titer Glo 2.0, 72 h), mono- and combination therapy, GCPA007T2.I; details: for IC50: read-out: IC50 in monotherapy
Procedure: as §4
(§5) Overall cell survival (in %) was plotted against the drug concentration range of each drug (in log10[μM]) using GraphPad Prism 8.3.1. Values that exceeded 100% survival (within +20% biological deviation) were normalized to 100% survival. Similarly, values below 0% cell survival (within −20% biological deviation) were normalized to 0% survival. Values exceeding this deviation were excluded. Dose–response curves were obtained using the model “log(inhibitor) vs. variable slope (normalized response)” to fit the dose–response curves and R^2 values were used to indicate how well the model fit the data (Supplementary Materials Figures S4 and S5). […] The maximum plasma concentration (Cmax) and the plasma concentration at steady state (Css) were used as toxicity thresholds. The Cmax was utilized for drugs in which short, high-dosage time courses are required, while the Css was used for maintenance therapy regimes such as anti-hormonal treatment. […] The IC50 values were calculated based on the Chou–Talalay method using Compusyn software [55]. For anti-hormonal treatment, mostly provided as maintenance therapy, we used IC10 values in addition to the IC50.
as §3

[5] = tested on: GCPA096 T1.XV patient-derived AGCT cell line; assay: Cell viability drug screen (Cell Titer Glo 2.0, 72 h), mono- and combination therapy, GCPA096T1.XV; details: for IC50: read-out: IC50 in monotherapy, 72 h
Procedure: Cell lines were seeded at a density of 500 cells/well in 40 uL in 384-well plates (Corning, NY, USA) with the Multidrop™ cell dispenser (Thermo Fischer Scientific, Waltham, MA, USA) and sealed with Breathe-Easy® membrane (Sigma-Aldrich, St. Louis, MO, USA) to prevent evaporation. The SVOG-3e line was seeded at 1000 cells/well due to contact-dependent growth requirements. For each cell line, three biological repeats and two technical repeats each were performed in order to ensure the validity of the drug screens. […] Subsequently, 11 drugs and 12 drug combinations were dispensed and all wells (excluding blanks and non-DMSO control wells) were normalized to 1% DMSO using the HP Tecan D300e Digital Dispenser (Hewlett-Packard, Palo Alto, CA, USA). All drugs were applied in linear concentration ranges (Table 2), including 16 data points to enable combination drug testing at constant ratios (Table 3). Next, the plates were covered with the Breathe-Easy membrane and incubated. After 72 h, the Multidrop dispensed 15 uL per well of Cell Titer Glo 2.0 (Thermo Fischer Scientific, Waltham, MA, USA) and plates were incubated in the dark for 10 min. After incubation, luminescence excitation was assessed in the Spectramax reader (Molecular Devices, San Jose, CA, USA) (top read, luminescence excitation at 500 nm) and raw data were processed in Microsoft Excel to subtract background luminescence. The Z-factor, a mathematical method used to quantify the quality of a drug screen based on the calculation of the separation band between the values of the positive and negative controls, was utilized to assess the quality of drug screens [54]. Screens with a Z-factor value of >0.5 were used for further analysis.
as §5, §3

[6] = tested on: GCPA028 T1.II patient-derived AGCT cell line; assay: Cell viability drug screen (Cell Titer Glo 2.0, 72 h), mono- and combination therapy, GCPA028; details: for IC50: read-out: IC50 in monotherapy
Procedure: as §4, §5, §3

[7] = tested on: GCPA113 T1.I patient-derived AGCT cell line; assay: Cell viability drug screen (Cell Titer Glo 2.0, 72 h), mono- and combination therapy, GCPA113T1.I; details: for IC50: read-out: IC50 in monotherapy
Procedure: as §1, §2, §3

[8] = tested on: GCPA096 T1.I patient-derived AGCT cell line; assay: Cell viability drug screen (Cell Titer Glo 2.0, 72 h), mono- and combination therapy, GCPA096T1.I; details: for IC50: read-out: IC50 in monotherapy
Procedure: as §1, §2, §3

[9] = tested on: GCPA096 T1.V patient-derived AGCT cell line; assay: Cell viability drug screen (Cell Titer Glo 2.0, 72 h), mono- and combination therapy, GCPA096T1.V; details: for IC50: read-out: IC50 in monotherapy, 72 h
[10] = tested on: GCPA108 T3.IV patient-derived AGCT cell line; assay: Cell viability drug screen (Cell Titer Glo 2.0, 72 h), mono- and combination therapy, GCPA108T3.IV; details: for IC50: read-out: IC50 in monotherapy
[11] = tested on: GCPA096 T1.II patient-derived AGCT cell line; assay: Cell viability drug screen (Cell Titer Glo 2.0, 72 h), mono- and combination therapy, GCPA096T1.II; details: for IC50: read-out: IC50 in monotherapy, 72 h
Procedure: as §4, §5, §3

[12] = tested on: GCPA007 T2.IV patient-derived AGCT cell line; assay: Cell viability drug screen (Cell Titer Glo 2.0, 72 h), mono- and combination therapy, GCPA007T2.IV; details: for IC50: read-out: IC50 in monotherapy
Procedure: as §1, §2, §3

[13] = tested on: GCPA096 T1.XVI patient-derived AGCT cell line; assay: Cell viability drug screen (Cell Titer Glo 2.0, 72 h), mono- and combination therapy, GCPA096T1.XVI; details: for IC50: read-out: IC50 in monotherapy
[14] = cited from earlier work; for Cmax: read-out: Cmax/Css plasma
[15] = tested on: AGCT cell lines; assay: Cell viability drug screen (72 h), summary over AGCT cell lines (12 patient-derived, with or without KGN); type: cell-based, human; details: everolimus with chemotherapy; 13 cell lines
[16] = tested on: aromatase inhibitor resistant metastatic breast cancer; details: everolimus added to tamoxifen; postmenopausal women; cited from earlier work
[17] = Homo sapiens, 72 h, read-out: IC50 in monotherapy
[18] = human maximum or steady state plasma concentration, log10 of the uM value
[19] = human plasma Cmax/Css, log10 of uM value, from phase I/II clinical trials
[20] = human plasma maximum/steady state concentration, ref phase I/II clinical trials
[21] = human plasma, maximum or steady state concentration, log10 of uM value
[22] = human plasma, log10 of uM, phase I/II trials
[23] = human maximum or steady state plasma concentration
[24] = human plasma Cmax/Css, from phase I/II clinical trials
[25] = human plasma, maximum or steady state concentration
[26] = human plasma, phase I/II trials

SMILES: Nc1nc2c(ncn2[C@H]2C[C@H](O)[C@@H](CO)O2)c(=S)[nH]1 [6thio-2dG, 6-THIO-2dG]
- DRI (Fa=0,5) ([1]; GCPA113T1III, drug within Carbo+Pacli+6thio2dG): 4.5
- IC50 ([1]; GCPA113T1III, monotherapy): > 50 µM
- DRI (Fa=0,5) ([2]; drug within Carbo+Pacli+6thio2dG): 4.961
- IC50 ([2]; read-out: IC50 in monotherapy, monotherapy): > 50 µM
- DRI (Fa=0,5) ([3]; GCPA113T1II, drug within Carbo+Pacli+6thio2dG): 3.71
- IC50 ([3]; GCPA113T1II, monotherapy): > 50 µM
- DRI (Fa=0,5) ([4]; in Carbo+Pacli+6thio2dG (10:1:1), GCPA007T2I): 2.27
- IC50 ([4]; GCPA007T2I, cell viability 72 h after drug application): > 50 µM
- DRI (Fa=0,5) ([5]; GCPA096T1XV, drug within Carbo+Pacli+6thio2dG): 13.49
- IC50 ([5]; GCPA096T1XV, single drug, unit not given (compared with Cmax/Css in uM)): > 50 µM
- DRI (Fa=0,5) ([6]; GCPA028, in combination Carbo+Pacli+6thio2dG): 0.16
- IC50 ([6]; GCPA028, monotherapy): > 50 µM
- DRI (Fa=0,5) ([7]; GCPA113T1I, in Carbo+Pacli+6thio2dG): 3.54
- IC50 ([7]; GCPA113T1I, monotherapy): > 50 µM
- DRI (Fa=0,5) ([8]; GCPA096T1I, in combination Carbo+Pacli+6thio2dG): 10.9
- IC50 ([8]; GCPA096T1I, monotherapy): > 50 µM
- DRI (Fa=0,5) ([9]; GCPA096T1V, drug within Carbo+Pacli+6thio2dG): 9.08
- IC50 ([9]; GCPA096T1V, single drug, unit not given (compared with Cmax/Css in uM)): > 50 µM
- DRI (Fa=0,5) ([10]; GCPA108T3IV, in Carbo+Pacli+6thio2dG): 6.093
- IC50 ([10]; GCPA108T3IV, monotherapy): > 50 µM
- DRI (Fa=0,5) ([11]; GCPA096T1II, drug within Carbo+Pacli+6thio2dG): 12.35
- IC50 ([11]; GCPA096T1II, single drug, unit not given (compared with Cmax/Css in uM)): > 50 µM
- DRI (Fa=0,5) ([12]; GCPA007T2IV, in combination Carbo+Pacli+6thio2dG): 0.95
- IC50 ([12]; GCPA007T2IV, monotherapy): > 50 µM
- DRI (Fa=0,5) ([13]; GCPA096T1XVI, in Carbo+Pacli+6thio2dG): 1.78
- IC50 ([13]; GCPA096T1XVI, monotherapy): 43.8 µM

SMILES: Cc1nc(Nc2ncc(C(=O)Nc3c(C)cccc3Cl)s2)cc(N2CCN(CCO)CC2)n1 [Dasatinib]
- IC50 ([1]; Homo sapiens, 72 h): 18.1 µM
- IC50 [2, 17]: 4.77 µM
- IC50 ([3]; Homo sapiens, 72 h): > 20 µM
- IC50 ([4]; Homo sapiens, 72 h): > 20 µM
- IC50 ([5]; Homo sapiens): > 20 µM
- Cmax/Css plasma (Log 10) [14, 18]: -0.9208 Log 10
- Cmax/Css plasma (Log 10) [14, 19]: -0.9208 Log 10
- Cmax/Css plasma (Log 10) [14, 20]: -0.9208 Log 10
- Cmax/Css plasma (Log 10) [14, 21]: -0.9208
- Cmax/Css plasma (Log 10) [14, 22]: -0.9208
- Cmax [14, 23]: 120 nM
- Cmax [14, 24]: 120 nM
- Cmax [14, 20]: 120 nM
- Cmax [14, 25]: 120 nM
- Cmax [14, 26]: 120 nM
- IC50 ([6]; Homo sapiens, 72 h): > 20 µM
- IC50 ([7]; Homo sapiens, 72 h): > 20 µM
- IC50 ([8]; Homo sapiens, 72 h): 14.2 µM
- IC50 ([9]; Homo sapiens): > 20 µM
- IC50 ([10]; Homo sapiens, 72 h): 4.65 µM
- IC50 ([11]; Homo sapiens): > 20 µM
- IC50 ([12]; Homo sapiens, 72 h): > 20 µM
- IC50 ([13]; Homo sapiens, 72 h): > 20 µM

SMILES: CO[C@H]1C[C@@H]2CC[C@@H](C)[C@@](O)(O2)C(=O)C(=O)N2CCCC[C@H]2C(=O)O[C@H]([C@H](C)C[C@@H]2CC[C@@H](OCCO)[C@H](OC)C2)CC(=O)[C@H](C)/C=C(\C)[C@@H](O)[C@@H](OC)C(=O)[C@H](C)C[C@H](C)/C=C/C=C/C=C/1C [Everolimus]
- cell lines with some degree of synergy [15]: 9 of the 13
- increase of time to progression [16]: 4.1 months
- reduction of death risk [16]: 55%
- DRI (Fa=0,5) ([1]; GCPA113T1III, drug within Everolimus+Alpelisib): 23.74
- IC50 ([1]; Homo sapiens, 72 h): > 50 µM
- IC50 ([1]; Homo sapiens): > 50 µM
- IC50 [2, 17]: 45.2 µM
- IC50 ([2]; Homo sapiens, read-out: IC50 in monotherapy): 45.2 µM
- DRI (Fa=0,5) ([2]; drug within Everolimus+Alpelisib): 5.131
- DRI (Fa=0,5) ([3]; GCPA113T1II, drug within Everolimus+Alpelisib): 11.87
- IC50 ([3]; Homo sapiens, 72 h): > 50 µM
- IC50 ([3]; Homo sapiens): > 50 µM
- IC50 ([4]; Homo sapiens, 72 h): 27.8 µM
- DRI (Fa=0,5) ([4]; in Everolimus+Alpelisib (1:2), GCPA007T2I): 3.15
- DRI (Fa=0,5) ([5]; GCPA096T1XV, drug within Everolimus+Alpelisib): 16.55
- IC50 ([5]; Homo sapiens): > 50 µM
- Cmax/Css plasma (Log 10) [14, 18]: -1.19 Log 10
- Cmax/Css plasma (Log 10) [14, 19]: -1.19 Log 10
- Cmax/Css plasma (Log 10) [14, 20]: -1.19 Log 10
- Cmax/Css plasma (Log 10) [14, 21]: -1.19
- Cmax/Css plasma (Log 10) [14, 22]: -1.19
- Cmax [14, 23]: 64.6 nM
- Cmax [14, 24]: 64.6 nM
- Cmax [14, 20]: 64.6 nM
- Cmax [14, 25]: 64.6 nM
- Cmax [14, 26]: 64.6 nM
- DRI (Fa=0,5) ([6]; GCPA028, in combination Everolimus+Alpelisib): 2.64
- IC50 ([6]; Homo sapiens, 72 h): 30.3 µM
- IC50 ([6]; Homo sapiens): 30.3 µM
- DRI (Fa=0,5) ([7]; GCPA113T1I, in Everolimus+Alpelisib): 20.32
- IC50 ([7]; Homo sapiens, 72 h): > 50 µM
- IC50 ([7]; Homo sapiens): > 50 µM
- DRI (Fa=0,5) ([8]; GCPA096T1I, in combination Everolimus+Alpelisib): 6.9
- IC50 ([8]; Homo sapiens, 72 h): 32.7 µM
- IC50 ([8]; Homo sapiens): 32.7 µM
- DRI (Fa=0,5) ([9]; GCPA096T1V, drug within Everolimus+Alpelisib): 12.7
- IC50 ([9]; Homo sapiens): > 50 µM
- DRI (Fa=0,5) ([10]; GCPA108T3IV, in Everolimus+Alpelisib): 76.7983
- IC50 ([10]; Homo sapiens, 72 h): > 50 µM
- IC50 ([10]; Homo sapiens): > 50 µM
- DRI (Fa=0,5) ([11]; GCPA096T1II, drug within Everolimus+Alpelisib): 13.23
- IC50 ([11]; Homo sapiens): > 50 µM
- DRI (Fa=0,5) ([12]; GCPA007T2IV, in combination Everolimus+Alpelisib): 1.9
- IC50 ([12]; Homo sapiens, 72 h): > 50 µM
- IC50 ([12]; Homo sapiens): > 50 µM
- DRI (Fa=0,5) ([13]; GCPA096T1XVI, in Everolimus+Alpelisib): 4.73
- IC50 ([13]; Homo sapiens, 72 h): 32.8 µM
- IC50 ([13]; Homo sapiens): 32.8 µM

SMILES: C[C@]12CC[C@@H]3c4ccc(O)cc4C[C@@H](CCCCCCCCC[S+]([O-])CCCC(F)(F)C(F)(F)F)[C@H]3[C@@H]1CC[C@@H]2O (stereo partly shown) [Fulvestrant]
- IC50 ([1]; Homo sapiens, 72 h): > 100 µM
- IC50 [2, 17]: > 100 µM
- IC50 in monotherapy ([3]; GCPA113T1II, monotherapy): Infinit
- IC50 ([4]; Homo sapiens, 72 h): > 100 µM
- IC50 ([5]; Homo sapiens): > 100 µM
- IC50 ([6]; Homo sapiens, 72 h): 33.3 µM
- IC50 ([7]; Homo sapiens, 72 h): > 100 µM
- IC50 ([8]; Homo sapiens, 72 h): > 100 µM
- IC50 ([9]; Homo sapiens): > 100 µM
- IC50 ([11]; Homo sapiens): > 100 µM
- IC50 ([12]; Homo sapiens, 72 h): > 100 µM
- IC50 ([13]; Homo sapiens, 72 h): > 100 µM
